{"source": "patent US20250263404A1", "about": "“AMINOPYRIDINES AS ACTIVATORS OF PI3 KINASE” (UCL Business Ltd, priority 2021, published 2025)", "key": {"mice": {"system": "mice", "assay": "In vivo model of ischaemia reperfusion injury in mice", "design": "species or system mouse", "details": "10 mg/kg via jugular vein", "procedure": "Male C57/BL6 mice weighing 25-30 g were used throughout. Animals received humane care in accordance with the United Kingdom Home Office Guide on the Operation of Animal (Scientific Procedures) Act 1986, Project Licence PPL70/15358.\nAnimals were anaesthetised with intraperitoneal (i.p.) sodium pentobarbital at a dose of 100 mg/kg. The mice were intubated by tracheotomy and ventilated with room air using a small animal ventilator (MinVent, Type 845, Hugo Sachs Elektronik, Harvard Apparatus). The mice were then placed on a heating pad and the rectal temperature monitored and maintained at ˜37° C. using a temperature controller. During the experiments, both ECG and heart rate were continuously recorded using a PowerLab (Adinstrument, USA). […]\nAfter 120 min reperfusion, the chest was re-opened, the heart was removed and cannulated via the thoracic aorta, and blood within the heart was washed out with saline. […] The total area of myocardium, the non-ischaemic area (which is stained with Evans blue), and the infarct area (i.e. the white area) of each slice were measured using Image-J software. The “area at risk” was calculated by subtraction of the non-ischaemic area (blue area) from the whole slice area and expressed as “percentage of the left ventricle”, and “infarct size” calculated as infarct area as a percentage of the area at risk. […]"}, "[1]": {"system": "PIP3 levels in A549 cells", "assay": "PIP3 measurement by mass spectrometry in A549 cells", "format": "cell-based, human", "details": "2 min", "procedure": "FIG. 21. a, MEFs were stimulated for the indicated time points with 1938 (5 μM) or for 2 min with PDGF (20 ng/ml) or insulin (100 nM), followed by lipid extraction and PIP3 measurement by mass spectrometry. b, MEFs were stimulated for 2 min with increasing doses of 1938 or PDGF, followed by lipid extraction and PIP3 measurement by mass spectrometry. c, A549 cells were stimulated for 2 min with increasing doses of 1938 or insulin, or 10 ng/ml PDGF, followed by lipid extraction and PIP3 measurement by mass spectrometry. […] These maximal 1938-induced PIP3 levels are below those required to give rise to sufficient PI(3,4)P2 to be detectable by mass spectrometry, a conclusion also supported by the observation that substantial levels of PIP3 induced by lower doses of PDGF (e.g. 0.5 ng/ml) were also not sufficient to give rise to levels of PI(3,4)P2 detectable by mass. […] A strong PIP3 response was also observed with insulin in these cells, with no PIP3 induced by PDGF, in line with the absence of this receptor in epithelial cells, including in A549."}, "N345K mutant of p110α": {"target": "T1, N345K mutant of p110α (Homo sapiens, UniProt P42336, N345K)", "T1 construct": "Full-length p110α was expressed in a complex with full-length p85α (for biochemistry and HDX-MS); 6xHis followed by TEV protease site (N); made in house; host or cells: Spodoptera frugiperda Sf9 (plasmid OP661)", "T1 sequence (P42336 whole entry N345K)": "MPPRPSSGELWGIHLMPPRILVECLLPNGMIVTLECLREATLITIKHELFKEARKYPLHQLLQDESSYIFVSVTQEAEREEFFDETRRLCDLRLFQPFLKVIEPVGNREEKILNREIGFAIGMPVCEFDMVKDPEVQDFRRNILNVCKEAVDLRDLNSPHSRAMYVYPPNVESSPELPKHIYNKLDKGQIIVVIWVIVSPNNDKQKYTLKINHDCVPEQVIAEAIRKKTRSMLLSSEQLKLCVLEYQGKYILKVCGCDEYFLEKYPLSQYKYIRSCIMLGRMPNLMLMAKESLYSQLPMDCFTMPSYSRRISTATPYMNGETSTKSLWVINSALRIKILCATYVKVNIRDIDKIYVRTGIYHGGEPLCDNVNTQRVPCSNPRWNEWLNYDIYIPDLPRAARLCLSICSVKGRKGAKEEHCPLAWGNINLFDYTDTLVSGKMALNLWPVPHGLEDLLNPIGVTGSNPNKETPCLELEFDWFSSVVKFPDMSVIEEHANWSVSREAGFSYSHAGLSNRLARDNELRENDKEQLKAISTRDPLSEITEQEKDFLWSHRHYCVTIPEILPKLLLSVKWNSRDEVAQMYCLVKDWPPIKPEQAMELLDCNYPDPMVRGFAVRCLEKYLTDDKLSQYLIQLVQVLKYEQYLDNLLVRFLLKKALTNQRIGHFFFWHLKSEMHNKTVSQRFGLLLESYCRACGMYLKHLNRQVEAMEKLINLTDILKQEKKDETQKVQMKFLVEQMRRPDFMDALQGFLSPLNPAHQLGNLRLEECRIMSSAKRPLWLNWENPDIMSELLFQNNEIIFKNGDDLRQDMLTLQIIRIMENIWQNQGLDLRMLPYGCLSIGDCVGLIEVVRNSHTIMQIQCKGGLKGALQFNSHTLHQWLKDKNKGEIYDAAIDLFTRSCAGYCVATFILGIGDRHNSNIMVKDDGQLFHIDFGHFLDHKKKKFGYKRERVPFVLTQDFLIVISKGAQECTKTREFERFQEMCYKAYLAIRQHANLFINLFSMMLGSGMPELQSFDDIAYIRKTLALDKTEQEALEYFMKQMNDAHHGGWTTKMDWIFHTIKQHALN", "T1 sequence (P27986 whole entry partner)": "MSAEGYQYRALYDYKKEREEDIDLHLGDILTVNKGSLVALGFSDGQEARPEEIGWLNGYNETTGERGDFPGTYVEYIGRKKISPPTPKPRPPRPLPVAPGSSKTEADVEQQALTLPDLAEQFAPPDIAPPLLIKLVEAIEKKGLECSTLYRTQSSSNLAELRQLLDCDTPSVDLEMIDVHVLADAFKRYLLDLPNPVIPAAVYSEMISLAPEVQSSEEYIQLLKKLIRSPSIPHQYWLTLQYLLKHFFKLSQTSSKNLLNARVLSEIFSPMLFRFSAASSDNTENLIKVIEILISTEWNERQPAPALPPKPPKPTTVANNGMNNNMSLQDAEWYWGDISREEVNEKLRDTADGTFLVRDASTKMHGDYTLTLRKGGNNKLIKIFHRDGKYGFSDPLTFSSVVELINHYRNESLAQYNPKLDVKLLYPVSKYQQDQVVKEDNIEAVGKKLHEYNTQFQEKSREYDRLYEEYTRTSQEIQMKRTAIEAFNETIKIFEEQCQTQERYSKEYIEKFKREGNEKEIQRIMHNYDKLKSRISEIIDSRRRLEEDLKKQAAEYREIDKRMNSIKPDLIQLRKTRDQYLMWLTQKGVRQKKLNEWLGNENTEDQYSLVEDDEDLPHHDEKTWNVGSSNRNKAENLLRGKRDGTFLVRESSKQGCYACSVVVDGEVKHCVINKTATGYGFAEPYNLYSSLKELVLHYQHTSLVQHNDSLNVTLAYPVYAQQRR", "assay": "ADP-Glo kinase assay, oncogenic mutant N345K", "format": "biochemical", "details": "compared with pY", "procedure": "Co-stimulation of 1938 with pY led to an additive activatory effect for G106V, but not for the N345K and E545K mutants (FIG. 1f/FIG. 22f).\nKinase reactions were performed with ADP-Glo kinase assay kit (Promega Corporation). The enzyme, substrate and compounds were diluted in reaction buffer (20 mM HEPES, 50 mM NaCl, 50 mM KCl, 3 mM MgCl2, 1 mM EGTA, 1 mM TCEP, pH 7.4). Final concentrations of PI3Kα and PI3Kδ used were 25 nM and 50 nM for PI3Kβ. Liposomes (5% brain PI(4,5)P2, 20% brain phosphatidylserine, 45% brain phosphatidylethanolamine, 15% brain phosphatidylcholine, 10% cholesterol, 5% sphingomyelin (Avanti Polar Lipids)) were used at a final concentration of 1 mg/ml. The pY sequence is ESDGG(pY)[…](pY)[…].\nFor characterisation of the effects of 1938 on in vitro PI3K enzymology, all reactions were performed at room temperature with 384 white-polystyrene plates (Corning #3574). The final DMSO concentration in the assay was between 0.5%-1.8%. The reaction mixture contained 2 μl PI3K enzyme, 2 μl compound and/or pY and 2 μl of liposome substrate mixed with ATP. ATP was used at a final concentration of 200 μM, unless otherwise stated. The enzyme and compounds were pre-incubated for 10 min prior to addition of substrate. […] For enzyme kinetic calculations, data was expressed as velocity (pmol of ADP generated/sec). […]"}}, "data": [{"compound": "CCN1CCN(c2ccc(Nc3cc(Nc4cccc5c4N(C(C)=O)CC5)ccn3)cc2)CC1", "note": "[Example 1938]", "values": [{"measurement": "pAKT^S473 levels in the hearts of mice", "setting": "mice", "value": "corresponding increase in pAKT^S473 levels"}, {"measurement": "cardioprotection in mice", "setting": "mice; 15 min prior to reperfusion", "value": "significant cardioprotection"}, {"measurement": "concentration at which PIP3 response maxed out", "setting": "[1]", "value": 10, "unit": "µM"}, {"measurement": "activation of N345K mutant", "setting": "N345K mutant of p110α", "value": "levels comparable with stimulation with pY"}]}]}
